Biological target: T1, GCase (Homo sapiens, UniProt P04062)
T1 construct: endogenous in cells; host or cells: HeLa cells
T1 sequence (P04062 40-536): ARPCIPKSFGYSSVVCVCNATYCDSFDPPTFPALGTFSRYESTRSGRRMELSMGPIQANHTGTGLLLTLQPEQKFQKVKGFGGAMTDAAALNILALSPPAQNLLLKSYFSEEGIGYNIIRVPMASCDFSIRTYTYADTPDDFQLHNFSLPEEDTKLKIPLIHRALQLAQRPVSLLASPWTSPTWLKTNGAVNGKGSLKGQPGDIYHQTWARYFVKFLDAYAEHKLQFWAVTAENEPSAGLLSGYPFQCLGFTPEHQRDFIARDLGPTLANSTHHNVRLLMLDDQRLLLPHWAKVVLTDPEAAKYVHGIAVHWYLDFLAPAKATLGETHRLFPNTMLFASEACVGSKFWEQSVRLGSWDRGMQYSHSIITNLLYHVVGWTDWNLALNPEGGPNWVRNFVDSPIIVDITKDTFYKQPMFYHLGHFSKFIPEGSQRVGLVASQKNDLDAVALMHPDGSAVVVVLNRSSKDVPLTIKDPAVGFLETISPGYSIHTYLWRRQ
Experiment: live cell PFB assay in HELA cells for activation of GCase
Type: cell-based
Description: Exemplary compounds were evaluated for activation of GCase in a live cell PFB assay in HELA cells (essentially as described in Ysselstein et al., “LRRK2 kinase activity regulates lysosomal glucocerebrosidase in neurons derived from Parkinson's disease patients” Nature Communications (2019) 10:5570). […] EC50 ranges: A: <10 μM; B: >10-50 μM; C: >50-100 μM; D: >100 μM.

SMILES | EC50 [µM]
FC(F)(F)c1ccnc(N2C[C@H]3CCN(c4cnc5cnn(C6COC6)c5n4)C[C@H]3C2)c1 (racemic) [Compound 1] | < 10
FC(F)Cn1ncc2ncc(N3CC[C@@H]4CN(c5cccnc5C(F)(F)F)C[C@@H]4C3)nc21 (racemic) [Compound 2, rac-3-[(3aR,7aS)-5-[1-(2,2-difluoroethyl)-1H-pyrazolo[3,4-b]pyrazin-6-yl]-octahydro-1H-pyrrolo[3,4-c]pyridin-2-yl]-2-(trifluoromethyl)pyridine] | < 10
FC(F)Cn1ncc2ncc(N3CC[C@@H]4CN(c5cc(C(F)(F)F)ccn5)C[C@@H]4C3)nc21 (racemic) [Compound 3] | < 10
FC(F)Cn1ncc2ncc(N3C[C@H]4CCN(c5cccnc5C(F)(F)F)C[C@H]4C3)nc21 (racemic) [Compound 4, rac-3-[(3aR,7aR)-2-[1-(2,2-difluoroethyl)-1H-pyrazolo[3,4-b]pyrazin-6-yl]-octahydro-1H-pyrrolo[3,4-c]pyridin-5-yl]-2-(trifluoromethyl)pyridine] | < 10
FC(F)Cn1ncc2ncc(N3CC[C@@H]4CN(c5ncccc5C(F)(F)F)C[C@@H]4C3)nc21 (racemic) [Compound 5] | < 10
FC(F)Cn1ncc2ncc(N3C[C@H]4CCN(c5cccc(C(F)(F)F)n5)C[C@H]4C3)nc21 (racemic) [Compound 6] | < 10
FC(F)Cn1ncc2ncc(N3CC[C@@H]4CN(c5cccc(C(F)(F)F)n5)C[C@@H]4C3)nc21 (racemic) [Compound 7] | < 10
FC(F)Cn1ncc2ncc(N3CC[C@@H]4CN(c5ccc(C(F)(F)F)cn5)C[C@@H]4C3)nc21 (racemic) [Compound 8] | < 10
O=C(c1ccc2ccn(CC3COC3)c2c1)N1CC[C@@H]2CN(c3cc(C(F)(F)F)ccn3)C[C@@H]2C1 (racemic) [Compound 9, rac-6-[(3aR,7aS)-2-[4-(trifluoromethyl)pyridin-2-yl]-octahydro-1H-pyrrolo[3,4-c]pyridine-5-carbonyl]-1-[(oxetan-3-yl)methyl]-1H-indole] | 10 to 50
FC(F)Cn1ncc2ncc(N3CC[C@@H]4CN(c5cncc(C(F)(F)F)c5)C[C@@H]4C3)nc21 (racemic) [Compound 10, rac-3-[(3aR,7aS)-5-[1-(2,2-difluoroethyl)-1H-pyrazolo[3,4-b]pyrazin-6-yl]-octahydro-1H-pyrrolo[3,4-c]pyridin-2-yl]-5-(trifluoromethyl)pyridine] | 10 to 50
FC(F)Cn1ncc2ncc(N3C[C@H]4CCN(c5cc(C(F)(F)F)ccn5)C[C@H]4C3)nc21 (racemic) [Compound 11] | 10 to 50
FC(F)Cn1ncc2ncc(N3CC[C@@H]4CN(c5ccc(C(F)(F)F)nc5)C[C@@H]4C3)nc21 (racemic) [Compound 12, rac-5-[(3aR,7aS)-5-[1-(2,2-difluoroethyl)-1H-pyrazolo[3,4-b]pyrazin-6-yl]-octahydro-1H-pyrrolo[3,4-c]pyridin-2-yl]-2-(trifluoromethyl)pyridine] | 10 to 50
FC(F)(F)Cn1ncc2ncc(N3CC[C@@H]4CN(c5cc(C(F)(F)F)ccn5)C[C@@H]4C3)nc21 (racemic) [Compound 13] | 10 to 50
FC(F)Cn1ncc2ncc(N3C[C@H]4CCN(c5cncc(C(F)(F)F)c5)C[C@H]4C3)nc21 (racemic) [Compound 14, rac-3-[(3aR,7aR)-2-[1-(2,2-difluoroethyl)-1H-pyrazolo[3,4-b]pyrazin-6-yl]-octahydro-1H-pyrrolo[3,4-c]pyridin-5-yl]-5-(trifluoromethyl)pyridine] | 10 to 50
FC(F)Cn1ncc2ncc(N3CC[C@@H]4CN(c5cnccc5C(F)(F)F)C[C@@H]4C3)nc21 (racemic) [Compound 15, rac-3-[(3aR,7aS)-5-[1-(2,2-difluoroethyl)-1H-pyrazolo[3,4-b]pyrazin-6-yl]-octahydro-1H-pyrrolo[3,4-c]pyridin-2-yl]-4-(trifluoromethyl)pyridine] | 10 to 50
O=C(c1ccc2ccn(C3COC3)c2c1)N1CC[C@@H]2CN(c3cc(C(F)(F)F)ccn3)C[C@@H]2C1 (racemic) [Compound 16, rac-6-[(3aR,7aS)-2-[4-(trifluoromethyl)pyridin-2-yl]-octahydro-1H-pyrrolo[3,4-c]pyridine-5-carbonyl]-1-(oxetan-3-yl)-1H-indole] | 10 to 50
FC(F)Cn1ncc2ncc(N3C[C@H]4CCN(c5ncccc5C(F)(F)F)C[C@H]4C3)nc21 (racemic) [Compound 17] | 10 to 50
FC(F)Cn1ncc2ncc(N3C[C@H]4CCN(c5ccc(C(F)(F)F)cn5)C[C@H]4C3)nc21 (racemic) [Compound 18] | 10 to 50
FC(F)(F)c1ccnc(N2C[C@H]3CCN(c4cncc(-c5nncs5)n4)C[C@H]3C2)c1 (racemic) [Compound 19, rac-2-[(3aR,7aS)-2-[4-(trifluoromethyl)pyridin-2-yl]-octahydro-1H-pyrrolo[3,4-c]pyridin-5-yl]-6-(1,3,4-thiadiazol-2-yl)pyrazine] | > 100
FC(F)Cn1ncc2ncc(N3C[C@H]4CCN(c5ccc(C(F)(F)F)nc5)C[C@H]4C3)nc21 (racemic) [Compound 20, rac-5-[(3aR,7aR)-2-[1-(2,2-difluoroethyl)-1H-pyrazolo[3,4-b]pyrazin-6-yl]-octahydro-1H-pyrrolo[3,4-c]pyridin-5-yl]-2-(trifluoromethyl)pyridine] | 10 to 50
FC(F)Cn1ncc2ncc(N3CC[C@@H]4CN(c5ccnc(C(F)(F)F)c5)C[C@@H]4C3)nc21 (racemic) [Compound 21, rac-4-[(3aR,7aS)-5-[1-(2,2-difluoroethyl)-1H-pyrazolo[3,4-b]pyrazin-6-yl]-octahydro-1H-pyrrolo[3,4-c]pyridin-2-yl]-2-(trifluoromethyl)pyridine] | < 10
FC(F)Cn1ncc2ncc(N3C[C@H]4CCN(c5ccncc5C(F)(F)F)C[C@H]4C3)nc21 (racemic) [Compound 22, rac-4-[(3aR,7aR)-2-[1-(2,2-difluoroethyl)-1H-pyrazolo[3,4-b]pyrazin-6-yl]-octahydro-1H-pyrrolo[3,4-c]pyridin-5-yl]-3-(trifluoromethyl)pyridine] | < 10
FC(F)Cn1ncc2ncc(N3C[C@H]4CCN(c5ccnc(C(F)(F)F)c5)C[C@H]4C3)nc21 (racemic) [Compound 23, rac-4-[(3aR,7aR)-2-[1-(2,2-difluoroethyl)-1H-pyrazolo[3,4-b]pyrazin-6-yl]-octahydro-1H-pyrrolo[3,4-c]pyridin-5-yl]-2-(trifluoromethyl)pyridine] | 10 to 50
FC(F)Cn1ncc2ncc(N3C[C@H]4CCN(c5cnccc5C(F)(F)F)C[C@H]4C3)nc21 (racemic) [Compound 24, rac-3-[(3aR,7aR)-2-[1-(2,2-difluoroethyl)-1H-pyrazolo[3,4-b]pyrazin-6-yl]-octahydro-1H-pyrrolo[3,4-c]pyridin-5-yl]-4-(trifluoromethyl)pyridine] | 10 to 50
FC(F)Cn1ncc2ncc(N3CC[C@@H]4CN(c5ccncc5C(F)(F)F)C[C@@H]4C3)nc21 (racemic) [Compound 25] | > 100
FC(F)Cn1ncc2ncc(N3C[C@@H]4CN(c5cc(C(F)(F)F)ccn5)C[C@H]4C3)nc21 (racemic) [Compound 44, rac-2-[(3aR,6aR)-5-[1-(2,2-difluoroethyl)-1H-pyrazolo[3,4-b]pyrazin-6-yl]-octahydropyrrolo[3,4-c]pyrrol-2-yl]-4-(trifluoromethyl)pyridine] | > 100
FC(F)Cn1ncc2ncc(N3C[C@@H]4CN(c5cccc(C(F)(F)F)n5)C[C@H]4C3)nc21 (racemic) [Compound 46, rac-2-[(3aR,6aR)-5-[1-(2,2-difluoroethyl)-1H-pyrazolo[3,4-b]pyrazin-6-yl]-octahydropyrrolo[3,4-c]pyrrol-2-yl]-6-(trifluoromethyl)pyridine] | 50 to 100
FC(F)Cn1ncc2ncc(N3C[C@@H]4CN(c5ccc(C(F)(F)F)nc5)C[C@H]4C3)nc21 (racemic) [Compound 48, rac-5-[(3aR,6aR)-5-[1-(2,2-difluoroethyl)-1H-pyrazolo[3,4-b]pyrazin-6-yl]-octahydropyrrolo[3,4-c]pyrrol-2-yl]-2-(trifluoromethyl)pyridine] | 10 to 50
FC(F)Cn1ncc2ncc(N3C[C@@H]4CN(c5cccnc5C(F)(F)F)C[C@H]4C3)nc21 (racemic) [Compound 50, rac-3-[(3aR,6aR)-5-[1-(2,2-difluoroethyl)-1H-pyrazolo[3,4-b]pyrazin-6-yl]-octahydropyrrolo[3,4-c]pyrrol-2-yl]-2-(trifluoromethyl)pyridine] | < 10
O=C1[C@@H]2CN(c3cc(C(F)(F)F)ccn3)C[C@@H]2CN1c1cnc2cnn(CC(F)F)c2n1 (racemic) [Compound 55, rac-(3aR,6aS)-2-[1-(2,2-difluoroethyl)-1H-pyrazolo[3,4-b]pyrazin-6-yl]-5-[4-(trifluoromethyl)pyridin-2-yl]-octahydropyrrolo[3,4-c]pyrrol-1-one] | 10 to 50

— patent publication US20250230172A1 (Vanqua Bio, Inc., priority 2021, published 2025)
